A short description of data set [1]: Apparent permeability across apical to basolateral side in MDCK-II cells at 10 uM incubated for 2 hrs by LC/MS/MS analysis. It counts as ADME, cell-based, Canis lupus familiaris. The following applies: dog.
Data set [2] concerns the target T1, Protein Mdm4 (Homo sapiens, UniProt O15151).
T1 sequence (O15151 whole entry): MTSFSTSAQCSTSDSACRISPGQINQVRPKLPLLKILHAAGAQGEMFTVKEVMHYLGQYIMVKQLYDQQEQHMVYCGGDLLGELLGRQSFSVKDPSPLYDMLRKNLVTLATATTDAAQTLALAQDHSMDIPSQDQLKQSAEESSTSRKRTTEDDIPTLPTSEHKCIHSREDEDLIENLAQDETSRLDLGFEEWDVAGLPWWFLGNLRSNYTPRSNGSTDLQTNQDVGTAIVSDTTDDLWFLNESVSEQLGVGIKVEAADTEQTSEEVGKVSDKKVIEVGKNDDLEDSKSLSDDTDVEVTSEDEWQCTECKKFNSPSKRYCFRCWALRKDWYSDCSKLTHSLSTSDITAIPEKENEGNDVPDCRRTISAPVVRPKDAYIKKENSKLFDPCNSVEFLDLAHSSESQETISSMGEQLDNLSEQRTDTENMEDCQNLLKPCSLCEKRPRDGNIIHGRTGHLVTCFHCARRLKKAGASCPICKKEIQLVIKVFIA
In words: Inhibition of N-terminal biotin-his-tagged MDMX (24 to 108 residues)(unknown origin) binding to p53 incubated for 1 hr by Alphascreen assay.

Starred links: 1 amine or outer side, 2 acyl side, 3 side chain; linkers in the order of their positions; H or OH if unused. Non-standard residues stand in square brackets, D forms with d. Residues, ends and D or L forms follow the SMILES beside them. Ala(4-thiazolyl) = N[C@@H](Cc1cscn1)C(=O)O; Phe(4-Cl) = N[C@@H](Cc1ccc(Cl)cc1)C(=O)O; X1 = CCC(CC)C[C@@H](C(=O)[*:2])N(C)[*:1]; Phe(4-F) = N[C@@H](Cc1ccc(F)cc1)C(=O)O; NMeF = CN[C@@H](Cc1ccccc1)C(=O)O; NMeL = CN[C@@H](CC(C)C)C(=O)O; Ahp(2) = CCCCC[C@H](N)C(=O)O; Tle = CC(C)(C)[C@H](N)C(=O)O; hSer = N[C@@H](CCO)C(=O)O; NMeA = CN[C@@H](C)C(=O)O; dNMeA = CN[C@H](C)C(=O)O

As a reminder, the Papp A→B is the apparent permeability from the apical to the basolateral side of a cell layer. Usually IC50 stands for the midpoint of a concentration-inhibition curve. A lower IC50 goes with higher potency. Take `CCCCC[C@@H]1NC(=O)[C@H](CC(C)C)N(C)C(=O)[C@H](Cc2ccc(F)cc2)NC(=O)[C@H](C)N(C)C(=O)[C@@H](C)N(C)C(=O)[C@H](Cc2cscn2)NC(=O)[C@H](C)N(C)C(=O)[C@H](CCOC)NC(=O)[C@H]2CCCN2C(=O)[C@H](CC(CC)CC)N(C)C1=O` (cyclo([Ahp(2)][X1][dP][hSer](Me)[NMeA][Ala(4-thiazolyl)][dNMeA][NMeA][Phe(4-F)][NMeL])): in data set [1], the Papp A→B at 2 h, 10 µM is 0.8 ×10⁻⁶ cm/s. The compound further had an IC50 in data set [2] of 70 nM.
In the case of `COCC[C@@H]1NC(=O)[C@H]2CCCN2C(=O)[C@H](Cc2ccccc2)N(C)C(=O)[C@H](Cc2ccc(Cl)cc2)NC(=O)[C@H](C(C)(C)C)NC(=O)[C@H](Cc2ccc(F)cc2)NC(=O)[C@H](C)N(C)C(=O)[C@@H](C)N(C)C(=O)[C@H](Cc2cscn2)NC(=O)[C@H](C)N(C)C1=O` (cyclo([Ala(4-thiazolyl)][dNMeA][NMeA][Phe(4-F)][Tle][Phe(4-Cl)][NMeF][dP][hSer](Me)[NMeA])), the Papp A→B at 2 h, 10 µM in data set [1] is 0.07 ×10⁻⁶ cm/s. In data set [2], this compound showed an IC50 of 30 nM.

For the origin of these results see ChEMBL document CHEMBL5365517, “Molecular Design of Cyclic Peptides with Cell Membrane Permeability and Development of MDMX-p53 Inhibitor” (ACS Med Chem Lett, 2023).
